Test results taken from patent US20230031406A1, “COMPOUNDS AND COMPOSITIONS FOR TREATING CONDITIONS ASSOCIATED WITH NLRP ACTIVITY” (Novartis AG, priority 2018, published 2023).

These compounds were tested on PMA-differentiated THP-1 cells (assay: IL-1β production in PMA-differentiated THP-1 cells stimulated with gramicidin (hTHP-1 assay containing 2% fetal bovine serum; Procedures 1 and 2)). Settings: Homo sapiens, THP-1, Table B2; 2% fetal bovine serum; class symbols; read-out: hTHP-1 IC50.
Format: cell-based, human
Outline: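 Secreted IL-1β, read by HTRF, after gramicidin challenge (5 μM, 2 h) of THP-1 cells differentiated with PMA (20 ng/ml, 16-18 h) and plated at 50,000 cells/well in 2% FBS medium. Compounds, 0.0017-100 μM final with 0.37% DMSO, were added 1 h before stimulation.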

Row | Compound | IC50 [nM]
1 | CC1(C)CCc2c1nc1c(c2NC(=O)N=S(N)(=O)c2cnn3c2OCCC3)CCC1 (stereo not drawn) [Compound 304, N′-((3,3-dimethyl-1,2,3,5,6,7-hexahydrodicyclopenta[b,e]pyridin-8-yl)carbamoyl)-6,7-dihydro-5H-pyrazolo[5,1-b][1,3]oxazine-3-sulfonimidamide] | 1000 to 5000
2 | Cc1c(C2CC2)nc2c(c1NC(=O)N=S(N)(=O)c1cnn3c1OCCC3)CCC2 (stereo not drawn) [Compound 306, N′-((2-cyclopropyl-3-methyl-6,7-dihydro-5H-cyclopenta[b]pyridin-4-yl)carbamoyl)-6,7-dihydro-5H-pyrazolo[5,1-b][1,3]oxazine-3-sulfonimidamide] | 5000 to 30000
3 | CC(C)c1nc2c(cc1NC(=O)N=S(N)(=O)c1cnc(C(C)(C)O)s1)CCC2 (stereo not drawn) [Compound 601, 2-(2-Hydroxypropan-2-yl)-N′-((2-isopropyl-6,7-dihydro-5H-cyclopenta[b]pyridin-3-yl)carbamoyl)thiazole-5-sulfonimidamide] | 5000 to 30000
4 | CC(C)(O)c1cc(F)c(S(N)(=O)=NC(=O)Nc2cc(CC(F)(F)F)nc3c2CCC3)s1 (stereo not drawn) [Compound 602, 3-Fluoro-5-(2-hydroxypropan-2-yl)-N′-((2-(2,2,2-trifluoroethyl)-6,7-dihydro-5H-cyclopenta[b]pyridin-4-yl)carbamoyl)thiophene-2-sulfonimidamide] | 1000 to 5000
5 | CCn1ccc(S(N)(=O)=NC(=O)Nc2c3c(nc4c2CCC4(C)C)CCC3)n1 (stereo not drawn) [Compound 603, N′-((3,3-dimethyl-1,2,3,5,6,7-hexahydrodicyclopenta[b,e]pyridin-8-yl)carbamoyl)-1-ethyl-1H-pyrazole-3-sulfonimidamide] | 40 to 200
6 | CCn1ccc(S(N)(=O)=NC(=O)Nc2c3c(nc4c2CCC42CC2)CCC3)n1 (stereo not drawn) [Compound 604, 1-Ethyl-N′-((1′,5′,6′,7′-tetrahydro-2′H-spiro[cyclopropane-1,3′-dicyclopenta[b,e]pyridin]-8′-yl)carbamoyl)-1H-pyrazole-3-sulfonimidamide] | 200 to 1000
7 | CC(C)(O)c1csc(S(N)(=O)=NC(=O)Nc2cc(CC(F)(F)F)nc3c2CCC3)c1 (stereo not drawn) [Compound 607, 4-(2-Hydroxypropan-2-yl)-N′-((2-(2,2,2-trifluoroethyl)-6,7-dihydro-5H-cyclopenta[b]pyridin-4-yl)carbamoyl)thiophene-2-sulfonimidamide] | 1000 to 5000
8 | CCc1c(C(F)(F)F)nc2c(c1NC(=O)N=S(N)(=O)c1cc(C(C)(C)O)cs1)CCC2 (stereo not drawn) [Compound 609, N′-((3-ethyl-2-(trifluoromethyl)-6,7-dihydro-5H-cyclopenta[b]pyridin-4-yl)carbamoyl)-4-(2-hydroxypropan-2-yl)thiophene-2-sulfonimidamide] | 1000 to 5000
9 | CCc1c(C(F)(F)F)nc2c(c1NC(=O)N=S(N)(=O)c1cnc(C(C)(C)O)s1)CCC2 (stereo not drawn) [Compound 610, N′-((3-ethyl-2-(trifluoromethyl)-6,7-dihydro-5H-cyclopenta[b]pyridin-4-yl)carbamoyl)-2-(2-hydroxypropan-2-yl)thiazole-5-sulfonimidamide] | 5000 to 30000
10 | CCc1c(C(F)(F)F)nc2c(c1NC(=O)N=S(N)(=O)c1sc(C(C)(C)O)cc1F)CCC2 (stereo not drawn) [Compound 611, N′-((3-ethyl-2-(trifluoromethyl)-6,7-dihydro-5H-cyclopenta[b]pyridin-4-yl)carbamoyl)-3-fluoro-5-(2-hydroxypropan-2-yl)thiophene-2-sulfonimidamide] | 200 to 1000
11 | Cc1c(C2CC2)nc(C2CC2)c(C)c1NC(=O)N=S(N)(=O)c1cc(C(C)(C)O)cs1 (stereo not drawn) [Compound 612, N′-((2,6-dicyclopropyl-3,5-dimethylpyridin-4-yl)carbamoyl)-4-(2-hydroxypropan-2-yl)thiophene-2-sulfonimidamide] | 1000 to 5000
12 | CC(C)(O)c1sc(S(N)(=O)=NC(=O)Nc2c3c(nc4c2CCC4(C)C)CCC3)cc1F (stereo not drawn) [Compound 613, N′-((3,3-dimethyl-1,2,3,5,6,7-hexahydrodicyclopenta[b,e]pyridin-8-yl)carbamoyl)-4-fluoro-5-(2-hydroxypropan-2-yl)thiophene-2-sulfonimidamide] | 200 to 1000
13 | CC(C)(O)c1sc(S(N)(=O)=NC(=O)Nc2c3c(nc4c2CCC42CC2)CCC3)cc1F (stereo not drawn) [Compound 614, 4-Fluoro-5-(2-hydroxypropan-2-yl)-N′-((1′,5′,6′,7′-tetrahydro-2′H-spiro[cyclopropane-1,3′-dicyclopenta[b,e]pyridin]-8′-yl)carbamoyl)thiophene-2-sulfonimidamide] | 200 to 1000
14 | CC(C)n1nc(S(N)(=O)=NC(=O)Nc2c3c(nc4c2CCC4(C)C)CCC3)cc1C(C)(C)O (stereo not drawn) [Compound 615, N′-((3,3-dimethyl-1,2,3,5,6,7-hexahydrodicyclopenta[b,e]pyridin-8-yl)carbamoyl)-5-(2-hydroxypropan-2-yl)-1-isopropyl-1H-pyrazole-3-sulfonimidamide] | 1000 to 5000
15 | C[C@@H]1CCc2c1nc1c(c2NC(=O)N=S(N)(=O)c2cc(F)c(C(C)(C)O)s2)CCC1 (stereo partly drawn) [Compound 616, 4-Fluoro-5-(2-hydroxypropan-2-yl)-N′-(((R)-3-methyl-1,2,3,5,6,7-hexahydrodicyclopenta[b,e]pyridin-8-yl)carbamoyl)thiophene-2-sulfonimidamide] | 40 to 200

More lines, now with the values ahead:

Row | IC50 [nM] | Compound
16 | 200 to 1000 | CC(C)c1nc2c(cc1NC(=O)N=[S@](N)(=O)c1cnc(C(C)(C)O)s1)CCC2 [Compound 601a]
17 | 5000 to 30000 | CC(C)c1nc2c(cc1NC(=O)N=[S@@](N)(=O)c1cnc(C(C)(C)O)s1)CCC2 [Compound 601b]
18 | 1000 to 5000 | CC(C)(O)c1cc(F)c([S@](N)(=O)=NC(=O)Nc2cc(CC(F)(F)F)nc3c2CCC3)s1 [Compound 602b]
19 | 5000 to 30000 | CCn1ccc([S@@](N)(=O)=NC(=O)Nc2c3c(nc4c2CCC42CC2)CCC3)n1 [Compound 604a]
20 | 200 to 1000 | CCn1ccc([S@](N)(=O)=NC(=O)Nc2c3c(nc4c2CCC42CC2)CCC3)n1 [Compound 604b]
21 | 200 to 1000 | Cc1c(C(F)(F)F)nc2c(c1NC(=O)N=[S@](N)(=O)c1cnc(C(C)(C)O)s1)CC[C@@H]2C [Compound 608a]
22 | 5000 to 30000 | Cc1c(C(F)(F)F)nc2c(c1NC(=O)N=[S@](N)(=O)c1cnc(C(C)(C)O)s1)CC[C@H]2C [Compound 608b]
23 | 1000 to 5000 | Cc1c(C(F)(F)F)nc2c(c1NC(=O)N=[S@@](N)(=O)c1cnc(C(C)(C)O)s1)CCC2C (stereo partly drawn) [Compound 608d]

Same assay, conditions: Homo sapiens, THP-1, Table B2; 2% fetal bovine serum; numeric bounds; read-out: hTHP-1 IC50

Row | Compound | IC50 [nM]
24 | CC(C)(O)c1cc(F)c([S@@](N)(=O)=NC(=O)Nc2cc(CC(F)(F)F)nc3c2CCC3)s1 [Compound 602a] | > 30000

Same assay, conditions: Table B2; 2% fetal bovine serum; class symbols; read-out: hTHP-1 IC50

Row | Compound | IC50 [nM]
25 | CC1(C)CCc2c1nc1c(c2NC(=O)N=S(N)(=O)c2cnc(C(C)(O)CO)s2)CCC1 (stereo not drawn) [Compound 201, 2-(1,2-Dihydroxypropan-2-yl)-N′-((3,3-dimethyl-1,2,3,5,6,7-hexahydrodicyclopenta [b,e]pyridin-8-yl)carbamoyl)thiazole-5-sulfonimidamide] | 200 to 1000
26 | Cc1c(C(F)(F)F)nc2c(c1NC(=O)N=S(N)(=O)c1cnc(C(C)(O)CO)s1)CCC2 (stereo not drawn) [Compound 605, 2-(1,2-Dihydroxypropan-2-yl)-N′-((3-methyl-2-(trifluoromethyl)-6,7-dihydro-5H-cyclopenta[b]pyridin-4-yl)cabamoyl)thiazole-5-sulfonimidamide] | 200 to 1000
27 | Cc1c(C(F)(F)F)nc2c(c1NC(=O)N=S(N)(=O)c1cnc(C(C)(C)O)s1)CCC2C (stereo not drawn) [Compound 608, N′-((3,7-dimethyl-2-(trifluoromethyl)-6,7-dihydro-5H-cyclopenta[b]pyridin-4-yl)carbamoyl)-2-(2-hydroxypropan-2-yl)thiazole-5-sulfonimidamide] | 1000 to 5000
